From patent publication US5162360A, “2-heteroatom containing urea and thiourea ACAT inhibitors” (Warner-Lambert Company, priority 1991, dated 1992)

How the values were obtained:
[1] = APCC in vivo screen: blood cholesterol in cholesterol-fed rats; set-up: species or system male Sprague-Dawley rats; settings: Rattus norvegicus, 192 h, oral, chow diet with peanut oil 5.5%, cholesterol 1.5%, cholic acid 0.5%, blood sampled next day 8 AM, read-out: % Change (mg/dl)
Experimental: In one in vivo screen designated APCC, male Sprague-Dawley rats (200 to 225 g) were randomly divided into treatment groups and dosed orally at 4 PM with either vehicle (CMC/Tween) or suspensions of test compounds in vehicle. The control group received vehicle alone. […] The next day the animals were sacrificed at 8 AM to obtain blood samples for cholesterol analysis using standard procedures. Statistical differences between mean cholesterol values for the same vehicle were determined using analysis of variance followed by Fisher's least significant test. […] The figure in parenthesis indicates the number of milligrams/kilogram of test compound administered.

[2] = target: T1, acyl-coenzyme A:cholesterol acyltransferase (ACAT) (Oryctolagus cuniculus, UniProt G1SFD9); assay: In vitro ACAT inhibition (radiolabeled cholesterol oleate formation from oleic acid, rabbit intestinal microsomes); type: biochemical
T1 sequence (G1SFD9 1-524): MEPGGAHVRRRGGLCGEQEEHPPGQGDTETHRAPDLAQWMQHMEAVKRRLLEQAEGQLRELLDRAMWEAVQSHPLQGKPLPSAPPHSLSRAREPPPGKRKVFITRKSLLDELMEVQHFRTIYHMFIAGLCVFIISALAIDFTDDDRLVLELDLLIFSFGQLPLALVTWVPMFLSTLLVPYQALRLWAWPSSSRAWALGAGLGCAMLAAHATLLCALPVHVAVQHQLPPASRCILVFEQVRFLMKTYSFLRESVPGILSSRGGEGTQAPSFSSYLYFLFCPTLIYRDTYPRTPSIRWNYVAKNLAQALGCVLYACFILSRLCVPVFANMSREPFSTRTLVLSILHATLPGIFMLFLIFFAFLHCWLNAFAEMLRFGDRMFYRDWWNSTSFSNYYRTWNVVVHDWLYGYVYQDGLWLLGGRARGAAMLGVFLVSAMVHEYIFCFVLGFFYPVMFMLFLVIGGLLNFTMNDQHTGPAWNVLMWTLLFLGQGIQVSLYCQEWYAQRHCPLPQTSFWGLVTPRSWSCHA
Experimental: The ability of representative compounds of the present invention to inhibit ACAT was measured using an in vitro test more fully described by F. J. Field and R. G. Salone, in Biochemica et Biophysica 712:557-570 (1982). The test assesses the ability of a test compound to inhibit the acylation of cholesterol by oleic acid by measuring the amount of radio-labeled cholesterol oleate formed from radiolabeled oleic acid in a tissue preparation containing rabbit intestinal microsomes.

Compound	change in vivo at 3 mg/kg [1]	change in vivo at 30 mg/kg [1]	IC50 [2]
CCCCCCCCCCc1cc(NC(=O)Nc2c(C(C)C)cccc2C(C)C)on1 [Example 10, N-[2,6-bis(1-methylethyl)phenyl]-N'-(3-decyl-5-isoxazolyl)urea]	-61%	-69%	–
CCCCCCCCCCc1sc(NC(=O)Nc2c(C(C)C)cccc2C(C)C)nc1C [Example 1, N-[2,6-bis(1-methylethyl)phenyl]-N'-(5-decyl-4-methyl-2-thiazolyl)urea]	–	-20%	–
CCCCCCCCCCCCCc1cc(NC(=O)Nc2c(C(C)C)cccc2C(C)C)on1 [Example 12, N-[2,6-bis(1-methylethyl)phenyl]-N'-(3-tridecyl-5-isoxazolyl)urea]	-51%	-62%	–
CCCCCc1sc(NC(=O)Nc2c(C(C)C)cccc2C(C)C)nc1C [Example 3, N-[2,6-bis(1-methylethyl)phenyl]-N-(5-pentyl-4-methyl-2-thiazolyl)urea]	–	-17%	1.9 µM
CCCCCCN(CCCCCC)Cc1cc(NC(=O)Nc2c(C(C)C)cccc2C(C)C)no1 [Example 20, N-[2,6-bis(1-methylethyl)phenyl]-N'-[5-[(dihexylamino)methyl]-3-isoxazolyl]urea]	–	-7%	2.7 µM
CCCCCCCCCCCc1cc(NC(=O)Nc2c(C(C)C)cccc2C(C)C)no1 [Example 15, N-[2,6-bis(1-methylethyl)phenyl]-N'-(5-undecyl-3-isoxazolyl)urea]	-51%	-61%	0.027 µM
CCCCCCc1csc(NC(=O)Nc2c(C(C)C)cccc2C(C)C)n1 [Example 4, N-[2,6-bis(1-methylethyl)phenyl]-N'-(4-hexyl-2-thiazolyl)urea]	–	4%	1.6 µM
CCCCCCCCCCc1cc(NC(=O)Nc2c(C(C)C)cccc2C(C)C)no1 [Example 14]	-29%	-62%	0.028 µM
CCCCCCCCCCCCc1cc(NC(=O)Nc2c(C(C)C)cccc2C(C)C)n(-c2ccccn2)n1 [Example 24, N-[2,6-bis(1-methylethyl)phenyl]-N'-[3-dodecyl-1-(2-pyridyl)-1H-pyrazol-5-yl]urea]	–	9%	0.1 µM
CCCCCCCCCCCCc1cc(NC(=O)Nc2c(C(C)C)cccc2C(C)C)no1 [Example 9, N-[2,6-bis(1-methylethyl)phenyl]-N'-(5-dodecyl-3-isoxazolyl)urea]	-54%	-67%	0.027 µM
Cc1csc(NC(=O)Nc2c(C(C)C)cccc2C(C)C)n1 [Example 6, N-[2,6-bis(1-methylethyl)phenyl]-N'-(4-methyl-2-thiazolyl)urea]	–	–	> 5 µM
CC(C)c1cccc(C(C)C)c1NC(=O)Nc1nc(-c2ccccc2)cs1 [Example 5, N-[2,6-bis(1-methylethyl)phenyl]-N'-(4-phenyl-2-thiazolyl)urea]	–	–	> 5 µM
CCCCCCCCCCCCCCc1cc(NC(=O)Nc2c(C(C)C)cccc2C(C)C)no1 [Example 17, N-[2,6-bis(1-methylethyl)phenyl]-N'-(5-tetradecyl-3-isoxazolyl)urea]	-47%	-58%	0.11 µM
Cc1cc(NC(=O)Nc2c(C(C)C)cccc2C(C)C)no1 [Example 18, N-[2,6-bis(1 methylethyl)phenyl]-N'-(5-methyl-3-isoxazolyl)urea]	–	–	> 5 µM
CCCCN(CCCC)Cc1cc(NC(=O)Nc2c(C(C)C)cccc2C(C)C)n(Cc2ccccc2)n1 [Example 22, N-[2,6-bis(1-methylethyl)phenyl]-N'-[3-[(dibutylamino)methyl]-1-(phenylmethyl)-1H-pyrazol-5-yl]urea]	–	-9%	1.9 µM
CCCCCCCCCCCn1nccc1NC(=O)Nc1c(C(C)C)cccc1C(C)C [Example 23, N-[2,6-bis(1-methylethyl)phenyl]-N'-(1-undecyl-1H-pyrazol-5-yl)urea]	5%	-64%	0.035 µM
CC(C)c1cccc(C(C)C)c1NC(=O)Nc1nc(C(C)(C)C)cs1 [Example 7, N-[2,6-bis(1-methylethyl)phenyl]-N'-(4-tert-butyl-2-thiazolyl)urea]	–	–	> 1 µM
CCCCCCCCCCCCc1cc(NC(=O)Nc2c(C(C)C)cccc2C(C)C)on1 [Example 8, N-[2,6-bis(1-methylethyl)phenyl]-N'-(3-dodecyl-5-isoxazolyl)urea]	-58%	-61%	–
CCCCCCCCCCCCCc1cc(NC(=O)Nc2c(C(C)C)cccc2C(C)C)no1 [Example 16, N-[2,6-bis(1-methylethyl)phenyl]-N'-(5-tridecyl-3-isoxazolyl)urea]	-59%	-62%	–
CCCCN(CCCC)Cc1cc(NC(=O)Nc2c(C(C)C)cccc2C(C)C)no1 [Example 19, N-[2,6-bis(1-methylethyl)phenyl]-N'-[5-[(dibutylamino)methyl]-3-isoxazolyl]urea]	-33%	-50%	0.51 µM
CCCCCCCCCCCc1cc(NC(=O)Nc2c(C(C)C)cccc2C(C)C)on1 [Example 11, N-[2,6-bis(1-methylethyl)phenyl]-N'-(3-undecyl-5-isoxazolyl)urea]	-67%	-70%	0.02 µM
CCCCCCCCCCCCCCc1cc(NC(=O)Nc2c(C(C)C)cccc2C(C)C)on1 [Example 13, N-[2,6-bis(1-methylethyl)phenyl]-N'-(3-tetradecyl-5-isoxazolyl)urea]	-44%	-64%	–
